{
  "source": "patent US10174029B2",
  "about": "“Pyrimidine-2,4-diamine derivatives for treatment of cancer” (THOMAS HELLEDAYS STIFTELSE FOR MEDICINSK FORSKNING, priority 2012, dated 2019)",
  "data": [
    {"target": "MTH1 (Homo sapiens, UniProt P36639)", "test": "MTH1 enzymatic assay and IC50 value determination (malachite green)", "assay_type": "biochemical", "conditions": "MTH1 4.8 nM, dGTP 100 μM, 15 minutes at 22° C.; group: between 2 μM and 10 μM", "method_in_brief": "(§1)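 Malachite green detection of Pi after coupling dGTP hydrolysis to excess E. coli pyrophosphatase; 4.8 nM MTH1, 100 μM dGTP in Tris-acetate buffer with Mg2+ and DTT, 1% DMSO, 15 min at 22 °C. 12-point 1:3 compound series; absorbance at 630 nm; IC50 by four-parameter nonlinear regression.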", "units": {"IC50": "nM"}, "values": [
      {"molecule": "C[C@@H](Nc1cc(-c2cccc(Cl)c2Cl)nc(N)n1)C1CC1", "note": "[Example 179, 4-N-[(1R)-1-cyclopropylethyl]-6-(2,3-dichlorophenyl)pyrimidine-2,4-diamine]", "IC50": "2000 to 10000"},
      {"molecule": "Nc1nc(NC2CCOCC2)cc(-c2cccc(Cl)c2)n1", "note": "[Example 21, 6-(3-chlorophenyl)-4-N-(oxan-4-yl)pyrimidine-2,4-diamine]", "IC50": "2000 to 10000"},
      {"molecule": "Cc1nnc(CNc2cc(-c3cccc(C)c3C)nc(N)n2)[nH]1", "note": "[Example 399, 6-(2,3-Dimethylphenyl)-4-N-[(5-methyl-4H-1,2,4-triazol-3-yl)methyl]pyrimidine-2,4-diamine]", "IC50": "2000 to 10000"},
      {"molecule": "Cc1cccc(-c2cc(N[C@H](C)C3CC3)nc(N)n2)c1C", "note": "[Example 166, 4-N-[(1R)-1-cyclopropylethyl]-6-(2,3-dimethylphenyl)pyrimidine-2,4-diamine]", "IC50": "2000 to 10000"}
    ]},
    {"target": "MTH1 (Homo sapiens, UniProt P36639)", "test": "MTH1 enzymatic assay and IC50 value determination (malachite green)", "assay_type": "biochemical", "conditions": "MTH1 4.8 nM, dGTP 100 μM, 15 minutes at 22° C.; group: less than 200 nM", "method_in_brief": "as §1", "units": {"IC50": "nM"}, "values": [
      {"molecule": "Cc1c(Cl)cccc1-c1cc(NC2CC3CCC2C3)nc(N)n1", "note": "(stereo not shown) [Example 244, 4-N-{bicyclo[2.2.1]heptan-2-yl}-6-(3-chloro-2-methylphenyl)pyrimidine-2,4-diamine]", "IC50": "< 200"},
      {"molecule": "CNc1cc(-c2ccccc2Cl)nc(N)n1", "note": "[Example 77, 6-(2-chlorophenyl)-4-N-methylpyrimidine-2,4-diamine]", "IC50": "< 200"},
      {"molecule": "CNc1cc(-c2cccc3[nH]ccc23)nc(N)n1", "note": "[Example 174, 6-(1H-indol-4-yl)-4-N-methylpyrimidine-2,4-diamine]", "IC50": "< 200"},
      {"molecule": "Nc1nc(NC2CCCC2)cc(-c2cccc(C(F)(F)F)c2)n1", "note": "[Example 57, 4-N-cyclopentyl-6-[3-(trifluoromethyl)phenyl]pyrimidine-2,4-diamine]", "IC50": "< 200"},
      {"molecule": "CNc1cc(-c2cc(C)ccc2Cl)nc(N)n1", "note": "[Example 171, 6-(2-chloro-5-methylphenyl)-4-N-methylpyrimidine-2,4-diamine]", "IC50": "< 200"},
      {"molecule": "Cc1cc(Cl)ccc1-c1cc(NCCc2ccc(S(N)(=O)=O)cc2)nc(N)n1", "note": "[Example 432, 4-(2-{[2-amino-6-(4-chloro-2-methylphenyl)pyrimidin-4-yl]amino}ethyl)benzene-1-sulfonamide]", "IC50": "< 200"},
      {"molecule": "CC(=O)Nc1cccc(OCCCNc2cc(-c3cccc(C)c3C)nc(N)n2)c1", "note": "[Example 363, N-[3-(3-{[2-Amino-6-(2,3-dimethylphenyl)pyrimidin-4-yl]amino}propoxy)phenyl]acetamide]", "IC50": "< 200"},
      {"molecule": "CC1CCN(Cc2cccc(CNc3cc(-c4cccc(Cl)c4Cl)nc(N)n3)c2)CC1", "note": "[Example 300, 6-(2,3-Dichlorophenyl)-4-N-({3-[(4-methylpiperidin-1-yl)methyl]phenyl}methyl)-pyrimidine-2,4-diamine]", "IC50": "< 200"},
      {"molecule": "CNc1cc(-c2ccc(O)nc2)nc(N)n1", "note": "[Example 141, 5-[2-amino-6-(methylamino)pyrimidin-4-yl]pyridin-2-ol]", "IC50": "< 200"},
      {"molecule": "Cc1ccccc1-c1cc(NCCc2ccc(Cl)cc2)nc(N)n1", "note": "[Example 264, 4-N-[2-(4-chlorophenyl)ethyl]-6-(2-methylphenyl)pyrimidine-2,4-diamine]", "IC50": "< 200"},
      {"molecule": "Cc1c(F)ccc(-c2cc(NCCc3ccc(S(C)(=O)=O)cc3)nc(N)n2)c1C", "note": "[Example 430, 6-(4-fluoro-2,3-dimethylphenyl)-4-N-[2-(4-methanesulfonylphenyl)ethyl]pyrimidine-2,4-diamine]", "IC50": "< 200"},
      {"molecule": "Cc1cccc(-c2cc(NC3CC3)nc(N)n2)c1Cl", "note": "[Example 227, 6-(2-chloro-3-methylphenyl)-4-N-cyclopropylpyrimidine-2,4-diamine]", "IC50": "< 200"},
      {"molecule": "CNc1cc(-c2ccc(C(F)(F)F)cc2)nc(N)n1", "note": "[Example 36, 4-N-methyl-6-[4-(trifluoromethyl)phenyl]pyrimidine-2,4-diamine]", "IC50": "< 200"},
      {"molecule": "CNc1cc(-c2cccc(NC(=O)C(C)=O)c2)nc(N)n1", "note": "[Example 315, N-{3-[2-Amino-6-(methylamino)pyrimidin-4-yl]phenyl}-2-oxopropanamide]", "IC50": "< 200"},
      {"molecule": "Nc1nc(NCCc2ccc(S(N)(=O)=O)cc2)cc(-c2cccc(Cl)c2Cl)n1", "note": "[Example 296, 4-(2-{[2-amino-6-(2,3-dichlorophenyl)pyrimidin-4-yl]amino}ethyl)benzene-1-sulfonamide]", "IC50": "< 200"},
      {"molecule": "CNc1cc(-c2cc(Cl)ccc2Cl)nc(N)n1", "note": "[Example 209, 6-(2,5-dichlorophenyl)-4-N-methylpyrimidine-2,4-diamine]", "IC50": "< 200"},
      {"molecule": "Cc1ccc2[nH]c(C)c(CCNc3cc(-c4cccc(C)c4C)nc(N)n3)c2c1", "note": "[Example 249, 4-N-[2-(2,5-dimethyl-1H-indol-3-yl)ethyl]-6-(2,3-dimethylphenyl)pyrimidine-2,4-diamine]", "IC50": "< 200"},
      {"molecule": "Cc1cccc(-c2cc(NC3CCC3)nc(N)n2)c1C", "note": "[Example 151, 4-N-cyclobutyl-6-(2,3-dimethylphenyl)pyrimidine-2,4-diamine]", "IC50": "< 200"},
      {"molecule": "Cc1ccc(Cl)cc1-c1cc(NCCc2ccc(Cl)cc2)nc(N)n1", "note": "[Example 222, 6-(5-chloro-2-methylphenyl)-4-N-[2-(4-chlorophenyl)ethyl]pyrimidine-2,4-diamine]", "IC50": "< 200"},
      {"molecule": "CNc1cc(-c2cc(Cl)ccc2OC)nc(N)n1", "note": "[Example 201, 6-(5-chloro-2-methoxyphenyl)-4-N-methylpyrimidine-2,4-diamine]", "IC50": "< 200"},
      {"molecule": "Cc1cccc(-c2cc(NCCCNS(=O)(=O)c3cccc(F)c3)nc(N)n2)c1C", "note": "[Example 381, N-(3-{[2-Amino-6-(2,3-dimethylphenyl)pyrimidin-4-yl]amino}propyl)-3-fluorobenzene-1-sulfonamide]", "IC50": "< 200"},
      {"molecule": "Nc1nc(NCCc2ccc(Cl)cc2)cc(-c2ccc(Cl)c(Cl)c2Cl)n1", "note": "[Example 419, 4-N-[2-(4-Chlorophenyl)ethyl]-6-(2,3,4-trichlorophenyl)pyrimidine-2,4-diamine]", "IC50": "< 200"},
      {"molecule": "COc1cccc(NCCNc2cc(-c3cccc(C)c3C)nc(N)n2)c1", "note": "[Example 447, 6-(2,3-dimethylphenyl)-4-N-{2-[(3-methoxyphenyl)amino]ethyl}pyrimidine-2,4-diamine]", "IC50": "< 200"},
      {"molecule": "CNc1cc(-c2ccc(F)c(Cl)c2)nc(N)n1", "note": "[Example 80, 6-(3-chloro-4-fluorophenyl)-4-N-methylpyrimidine-2,4-diamine]", "IC50": "< 200"},
      {"molecule": "Cc1cccc(-c2cc(NCCc3n[nH]c(-c4ccncc4)n3)nc(N)n2)c1C", "note": "[Example 349, 6-(2,3-dimethylphenyl)-4-N-{2-[5-(pyridin-4-yl)-1H-1,2,4-triazol-3-yl]ethyl}pyrimidine-2,4-diamine]", "IC50": "< 200"},
      {"molecule": "CNc1cc(-c2cccc(Cl)c2F)nc(N)n1", "note": "[Example 87, 6-(3-chloro-2-fluorophenyl)-4-N-methylpyrimidine-2,4-diamine]", "IC50": "< 200"},
      {"molecule": "Cc1cccc(-c2cc(NCC3CC3)nc(N)n2)c1C", "note": "[Example 164, 4-N-(cyclopropylmethyl)-6-(2,3-dimethylphenyl)pyrimidine-2,4-diamine]", "IC50": "< 200"},
      {"molecule": "CNc1cc(-c2ccc(OC)c(C)c2C)nc(N)n1", "note": "[Example 259, 6-(4-methoxy-2,3-dimethylphenyl)-4-N-methylpyrimidine-2,4-diamine]", "IC50": "< 200"},
      {"molecule": "CNc1cc(-c2ccc(CO)cc2)nc(N)n1", "note": "[Example 142, {4-[2-amino-6-(methylamino)pyrimidin-4-yl]phenyl}methanol]", "IC50": "< 200"},
      {"molecule": "COc1ccc2nc(CCNc3cc(-c4cccc(C)c4C)nc(N)n3)[nH]c2c1", "note": "[Example 351, 6-(2,3-Dimethylphenyl)-4-N-[2-(6-methoxy-1H-1,3-benzodiazol-2-yl)ethyl]pyrimidine-2,4-diamine]", "IC50": "< 200"}
    ]}
  ]
}
